Results from US9951028B2, “Agricultural chemicals” (REDAG CROP PROTECTION LTD, priority 2013, dated 2018).

Experiments:
Test in all cases: Herbicidal efficacy screen, potter tower spray, necrosis assessed
Assay type in all cases: in vivo
[1] = tested on: garden cress, Lepidium sativum
Experimental: (§1) Compounds 22, 23 and 24 were screened for herbicidal efficacy against target plants: garden cress, Lepidium sativum, common chickweed, Stellaria media, and white mustard […] alba Plants were obtained as seeds and were grown to the 2-4 true leaf stage. Plants were grown under laboratory conditions, individually in seed trays. Each plant (in an approximately 3 cm diameter plug) was then detached from the tray for spraying. The compounds were screened at a range of five concentrations, diluted in acetone and TweenTM. A carrier only control was also conducted. Treatments were applied directly onto the plants, using a potter tower, at a specified application rate. One plant of each species was sprayed using a potter tower. The 3 different types of plants were placed on a 10 cm diameter platform directly beneath the potter sprayer and sprayed simultaneously. The growth of the plants and any Phytotoxicity effects were then assessed at intervals over 21 days, according to EPPO guideline PP1/135. Five replicas were performed for each treatment, for each species. In the tables below C represents a percentage increase in necrosis relative to the control of 0.1-50; B represents a percentage inhibition of 50-80; and A represents a percentage inhibition of 80-100.

[2] = tested on: white mustard Sinapsis alba
Experimental: as §1

[3] = tested on: common chickweed, Stellaria media
Experimental: as §1

[4] = 12.5 g/ha, day 1 post application
[5] = 12.5 g/ha, day 2 post application
[6] = 12.5 g/ha, day 3 post application
[7] = 12.5 g/ha, day 4 post application
[8] = 12.5 g/ha, day 5 post application
[9] = 12.5 g/ha, day 7 post application
[10] = 12.5 g/ha, day 10 post application
[11] = 25 g/ha, day 1 post application
[12] = 25 g/ha, day 2 post application
[13] = 25 g/ha, day 3 post application
[14] = 25 g/ha, day 4 post application
[15] = 25 g/ha, day 5 post application
[16] = 25 g/ha, day 7 post application
[17] = 25 g/ha, day 10 post application
[18] = 50 g/ha, day 1 post application
[19] = 50 g/ha, day 2 post application
[20] = 50 g/ha, day 3 post application
[21] = 50 g/ha, day 4 post application
[22] = 50 g/ha, day 5 post application
[23] = 50 g/ha, day 7 post application
[24] = 50 g/ha, day 10 post application
[25] = 100 g/ha, day 1 post application
[26] = 100 g/ha, day 2 post application
[27] = 100 g/ha, day 3 post application
[28] = 100 g/ha, day 4 post application
[29] = 100 g/ha, day 5 post application
[30] = 100 g/ha, day 7 post application
[31] = 100 g/ha, day 10 post application
[32] = 200 g/ha, day 1 post application
[33] = 200 g/ha, day 2 post application
[34] = 200 g/ha, day 3 post application
[35] = 200 g/ha, day 4 post application
[36] = 200 g/ha, day 5 post application
[37] = 200 g/ha, day 7 post application
[38] = 200 g/ha, day 10 post application

CC(C)N(C)S(=O)(=O)NCc1cc(-n2c(=O)cc(C(F)(F)F)n(C)c2=O)c(F)cc1Cl [Compound 23, 1-[4-Chloro-2-fluoro-5-[[(isopropyl(methyl)sulfamoyl)amino]methyl]phenyl]-3-methyl-2,6-dioxo-4-(trifluoromethyl)pyrimidine]
Average of necrosis [1, 4]: C (C represents a percentage increase in necrosis relative to the control of 0.1-50)
Average of necrosis [1, 5]: C (C represents a percentage increase in necrosis relative to the control of 0.1-50)
Average of necrosis [1, 6]: C (C represents a percentage increase in necrosis relative to the control of 0.1-50)
Average of necrosis [1, 7]: C (C represents a percentage increase in necrosis relative to the control of 0.1-50)
Average of necrosis [1, 8]: C (C represents a percentage increase in necrosis relative to the control of 0.1-50)
Average of necrosis [1, 9]: C (C represents a percentage increase in necrosis relative to the control of 0.1-50)
Average of necrosis [1, 10]: C (C represents a percentage increase in necrosis relative to the control of 0.1-50)
Average of necrosis [1, 11]: C (C represents a percentage increase in necrosis relative to the control of 0.1-50)
Average of necrosis [1, 12]: C (C represents a percentage increase in necrosis relative to the control of 0.1-50)
Average of necrosis [1, 13]: C (C represents a percentage increase in necrosis relative to the control of 0.1-50)
Average of necrosis [1, 14]: C (C represents a percentage increase in necrosis relative to the control of 0.1-50)
Average of necrosis [1, 15]: C (C represents a percentage increase in necrosis relative to the control of 0.1-50)
Average of necrosis [1, 16]: C (C represents a percentage increase in necrosis relative to the control of 0.1-50)
Average of necrosis [1, 17]: B (B represents a percentage inhibition of 50-80)
Average of necrosis [1, 18]: C (C represents a percentage increase in necrosis relative to the control of 0.1-50)
Average of necrosis [1, 19]: C (C represents a percentage increase in necrosis relative to the control of 0.1-50)
Average of necrosis [1, 20]: C (C represents a percentage increase in necrosis relative to the control of 0.1-50)
Average of necrosis [1, 21]: C (C represents a percentage increase in necrosis relative to the control of 0.1-50)
Average of necrosis [1, 22]: B (B represents a percentage inhibition of 50-80)
Average of necrosis [1, 23]: B (B represents a percentage inhibition of 50-80)
Average of necrosis [1, 24]: B (B represents a percentage inhibition of 50-80)
Average of necrosis [1, 25]: C (C represents a percentage increase in necrosis relative to the control of 0.1-50)
Average of necrosis [1, 26]: C (C represents a percentage increase in necrosis relative to the control of 0.1-50)
Average of necrosis [1, 27]: C (C represents a percentage increase in necrosis relative to the control of 0.1-50)
Average of necrosis [1, 28]: C (C represents a percentage increase in necrosis relative to the control of 0.1-50)
Average of necrosis [1, 29]: B (B represents a percentage inhibition of 50-80)
Average of necrosis [1, 30]: B (B represents a percentage inhibition of 50-80)
Average of necrosis [1, 31]: B (B represents a percentage inhibition of 50-80)
Average of necrosis [1, 32]: C (C represents a percentage increase in necrosis relative to the control of 0.1-50)
Average of necrosis [1, 33]: B (B represents a percentage inhibition of 50-80)
Average of necrosis [1, 34]: B (B represents a percentage inhibition of 50-80)
Average of necrosis [1, 35]: B (B represents a percentage inhibition of 50-80)
Average of necrosis [1, 36]: B (B represents a percentage inhibition of 50-80)
Average of necrosis [1, 37]: B (B represents a percentage inhibition of 50-80)
Average of necrosis [1, 38]: B (B represents a percentage inhibition of 50-80)
Average of necrosis [2, 4]: C (C represents a percentage increase in necrosis relative to the control of 0.1-50)
Average of necrosis [2, 5]: C (C represents a percentage increase in necrosis relative to the control of 0.1-50)
Average of necrosis [2, 6]: C (C represents a percentage increase in necrosis relative to the control of 0.1-50)
Average of necrosis [2, 7]: C (C represents a percentage increase in necrosis relative to the control of 0.1-50)
Average of necrosis [2, 8]: C (C represents a percentage increase in necrosis relative to the control of 0.1-50)
Average of necrosis [2, 9]: C (C represents a percentage increase in necrosis relative to the control of 0.1-50)
Average of necrosis [2, 10]: C (C represents a percentage increase in necrosis relative to the control of 0.1-50)
Average of necrosis [2, 11]: C (C represents a percentage increase in necrosis relative to the control of 0.1-50)
Average of necrosis [2, 12]: C (C represents a percentage increase in necrosis relative to the control of 0.1-50)
Average of necrosis [2, 13]: C (C represents a percentage increase in necrosis relative to the control of 0.1-50)
Average of necrosis [2, 14]: C (C represents a percentage increase in necrosis relative to the control of 0.1-50)
Average of necrosis [2, 15]: C (C represents a percentage increase in necrosis relative to the control of 0.1-50)
Average of necrosis [2, 16]: C (C represents a percentage increase in necrosis relative to the control of 0.1-50)
Average of necrosis [2, 17]: C (C represents a percentage increase in necrosis relative to the control of 0.1-50)
Average of necrosis [2, 18]: C (C represents a percentage increase in necrosis relative to the control of 0.1-50)
Average of necrosis [2, 19]: C (C represents a percentage increase in necrosis relative to the control of 0.1-50)
Average of necrosis [2, 20]: C (C represents a percentage increase in necrosis relative to the control of 0.1-50)
Average of necrosis [2, 21]: C (C represents a percentage increase in necrosis relative to the control of 0.1-50)
Average of necrosis [2, 22]: C (C represents a percentage increase in necrosis relative to the control of 0.1-50)
Average of necrosis [2, 23]: C (C represents a percentage increase in necrosis relative to the control of 0.1-50)
Average of necrosis [2, 24]: C (C represents a percentage increase in necrosis relative to the control of 0.1-50)
Average of necrosis [2, 25]: C (C represents a percentage increase in necrosis relative to the control of 0.1-50)
Average of necrosis [2, 26]: C (C represents a percentage increase in necrosis relative to the control of 0.1-50)
Average of necrosis [2, 27]: C (C represents a percentage increase in necrosis relative to the control of 0.1-50)
Average of necrosis [2, 28]: C (C represents a percentage increase in necrosis relative to the control of 0.1-50)
Average of necrosis [2, 29]: C (C represents a percentage increase in necrosis relative to the control of 0.1-50)
Average of necrosis [2, 30]: C (C represents a percentage increase in necrosis relative to the control of 0.1-50)
Average of necrosis [2, 31]: C (C represents a percentage increase in necrosis relative to the control of 0.1-50)
Average of necrosis [2, 32]: C (C represents a percentage increase in necrosis relative to the control of 0.1-50)
Average of necrosis [2, 33]: C (C represents a percentage increase in necrosis relative to the control of 0.1-50)
Average of necrosis [2, 34]: C (C represents a percentage increase in necrosis relative to the control of 0.1-50)
Average of necrosis [2, 35]: C (C represents a percentage increase in necrosis relative to the control of 0.1-50)
Average of necrosis [2, 36]: C (C represents a percentage increase in necrosis relative to the control of 0.1-50)
Average of necrosis [2, 37]: C (C represents a percentage increase in necrosis relative to the control of 0.1-50)
Average of necrosis [2, 38]: C (C represents a percentage increase in necrosis relative to the control of 0.1-50)
Average of necrosis [3, 4]: C (C represents a percentage increase in necrosis relative to the control of 0.1-50)
Average of necrosis [3, 5]: C (C represents a percentage increase in necrosis relative to the control of 0.1-50)
Average of necrosis [3, 6]: C (C represents a percentage increase in necrosis relative to the control of 0.1-50)
Average of necrosis [3, 7]: C (C represents a percentage increase in necrosis relative to the control of 0.1-50)
Average of necrosis [3, 8]: B (B represents a percentage inhibition of 50-80)
Average of necrosis [3, 9]: B (B represents a percentage inhibition of 50-80)
Average of necrosis [3, 10]: A (A represents a percentage inhibition of 80-100)
Average of necrosis [3, 11]: C (C represents a percentage increase in necrosis relative to the control of 0.1-50)
Average of necrosis [3, 12]: C (C represents a percentage increase in necrosis relative to the control of 0.1-50)
Average of necrosis [3, 13]: C (C represents a percentage increase in necrosis relative to the control of 0.1-50)
Average of necrosis [3, 14]: C (C represents a percentage increase in necrosis relative to the control of 0.1-50)
Average of necrosis [3, 15]: B (B represents a percentage inhibition of 50-80)
Average of necrosis [3, 16]: B (B represents a percentage inhibition of 50-80)
Average of necrosis [3, 17]: B (B represents a percentage inhibition of 50-80)
Average of necrosis [3, 18]: C (C represents a percentage increase in necrosis relative to the control of 0.1-50)
Average of necrosis [3, 19]: C (C represents a percentage increase in necrosis relative to the control of 0.1-50)
Average of necrosis [3, 20]: C (C represents a percentage increase in necrosis relative to the control of 0.1-50)
Average of necrosis [3, 21]: C (C represents a percentage increase in necrosis relative to the control of 0.1-50)
Average of necrosis [3, 22]: B (B represents a percentage inhibition of 50-80)
Average of necrosis [3, 23]: B (B represents a percentage inhibition of 50-80)
Average of necrosis [3, 24]: B (B represents a percentage inhibition of 50-80)
Average of necrosis [3, 25]: C (C represents a percentage increase in necrosis relative to the control of 0.1-50)
Average of necrosis [3, 26]: C (C represents a percentage increase in necrosis relative to the control of 0.1-50)
Average of necrosis [3, 27]: C (C represents a percentage increase in necrosis relative to the control of 0.1-50)
Average of necrosis [3, 28]: C (C represents a percentage increase in necrosis relative to the control of 0.1-50)
Average of necrosis [3, 29]: B (B represents a percentage inhibition of 50-80)
Average of necrosis [3, 30]: B (B represents a percentage inhibition of 50-80)
Average of necrosis [3, 31]: A (A represents a percentage inhibition of 80-100)
Average of necrosis [3, 32]: C (C represents a percentage increase in necrosis relative to the control of 0.1-50)
Average of necrosis [3, 33]: C (C represents a percentage increase in necrosis relative to the control of 0.1-50)
Average of necrosis [3, 34]: C (C represents a percentage increase in necrosis relative to the control of 0.1-50)
Average of necrosis [3, 35]: C (C represents a percentage increase in necrosis relative to the control of 0.1-50)
Average of necrosis [3, 36]: B (B represents a percentage inhibition of 50-80)
Average of necrosis [3, 37]: B (B represents a percentage inhibition of 50-80)
Average of necrosis [3, 38]: B (B represents a percentage inhibition of 50-80)
